Measurements from patent US9988400B2 (Genentech, Inc., priority 2013, dated 2018).

Target: T1, HEK cells stably transfected with tetracycline inducible hNR1 and hNR2A (Homo sapiens, UniProt Q05586+Q12879)
T1 construct: expressed in transfected cells; host or cells: HEK cells, stably transfected, tetracycline/doxycycline inducible
Assay: Assay 1: Cell-Based Assay, cytosolic calcium response to positive allosteric modulators (with 30 μM glycine and 300 nM L-glutamate, EC30)
Details: for EC50: cytosolic calcium response, with 30 μM glycine and 300 nM L-glutamate (EC30), — = no plateau was reached; for Max %: responses scaled relative to 100 μM L-glutamate maximal response (100%) and 0 μM L-glutamate (0%)
How it was run: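 Cells induced 24 h with 7.5 μg mL^−1 doxycycline plus 500 μM (+)-ketamine, loaded 60 min at 37 °C with calcium dye in Mg-free HBSS (1.8 mM Ca, probenecid, 10 μM (+)-ketamine, pH 7.15). Peak RFU over 5 min after compound addition, scaled to 100 μM L-glutamate (100%) and 0 μM (0%); four-parameter Hill fit for EC50, max % if no plateau.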

T1 sequence (Q12879 23-1464, other chains not shown): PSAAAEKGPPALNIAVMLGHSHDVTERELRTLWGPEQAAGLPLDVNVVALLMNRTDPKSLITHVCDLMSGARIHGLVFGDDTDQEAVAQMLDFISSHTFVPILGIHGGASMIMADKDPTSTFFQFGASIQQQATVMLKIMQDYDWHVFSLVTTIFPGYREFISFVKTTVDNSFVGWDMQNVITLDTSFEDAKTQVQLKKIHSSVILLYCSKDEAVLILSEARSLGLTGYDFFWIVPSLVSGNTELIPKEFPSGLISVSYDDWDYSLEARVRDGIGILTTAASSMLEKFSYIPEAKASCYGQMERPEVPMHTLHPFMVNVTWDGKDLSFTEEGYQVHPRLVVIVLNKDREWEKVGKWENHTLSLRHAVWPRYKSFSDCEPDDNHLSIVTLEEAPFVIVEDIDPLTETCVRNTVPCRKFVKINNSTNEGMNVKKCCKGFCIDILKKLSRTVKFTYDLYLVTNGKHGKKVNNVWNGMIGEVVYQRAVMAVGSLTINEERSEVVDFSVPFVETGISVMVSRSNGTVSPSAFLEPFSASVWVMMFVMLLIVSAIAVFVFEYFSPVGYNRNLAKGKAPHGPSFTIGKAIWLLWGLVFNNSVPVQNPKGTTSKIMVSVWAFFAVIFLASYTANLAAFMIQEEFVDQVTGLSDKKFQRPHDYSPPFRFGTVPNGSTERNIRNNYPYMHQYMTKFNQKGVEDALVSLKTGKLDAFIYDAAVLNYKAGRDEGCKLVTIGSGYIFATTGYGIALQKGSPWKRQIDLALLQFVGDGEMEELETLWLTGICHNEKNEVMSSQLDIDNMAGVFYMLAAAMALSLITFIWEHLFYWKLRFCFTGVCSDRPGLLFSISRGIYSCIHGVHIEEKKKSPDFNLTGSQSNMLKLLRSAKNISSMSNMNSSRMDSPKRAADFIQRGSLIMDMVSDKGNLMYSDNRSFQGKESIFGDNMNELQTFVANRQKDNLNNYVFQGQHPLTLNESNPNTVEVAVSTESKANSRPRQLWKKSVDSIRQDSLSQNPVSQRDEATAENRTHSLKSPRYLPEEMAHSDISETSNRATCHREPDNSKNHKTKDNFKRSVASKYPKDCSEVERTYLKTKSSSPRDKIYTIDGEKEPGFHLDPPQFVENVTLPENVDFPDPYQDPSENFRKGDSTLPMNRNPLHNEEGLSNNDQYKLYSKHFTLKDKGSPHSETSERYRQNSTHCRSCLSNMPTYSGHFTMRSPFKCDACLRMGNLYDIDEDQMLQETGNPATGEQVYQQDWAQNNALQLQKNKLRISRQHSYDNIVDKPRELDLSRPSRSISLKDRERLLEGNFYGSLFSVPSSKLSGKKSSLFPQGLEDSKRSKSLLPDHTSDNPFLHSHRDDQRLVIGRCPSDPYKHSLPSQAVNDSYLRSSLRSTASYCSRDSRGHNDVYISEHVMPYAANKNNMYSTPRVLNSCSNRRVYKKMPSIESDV

SMILES	EC50 (Table 3)	EC50 (Table 2)	Max % (Table 2)
Cc1sc2nc(Cn3nc(C(F)(F)F)cc3C(F)(F)F)cc(=O)n2c1[C@@H]1C[C@H]1CO (relative stereo) [Example 15.2, 7-((3,5-bis(trifluoromethyl)-1H-pyrazol-1-yl)methyl)-3-(trans-2-(hydroxymethyl)cyclopropyl)-2-methyl-5H-thiazolo[3,2-a]pyrimidin-5-one]	–	1 µM	167%
COCc1c(C)sc2nc(Cn3nc(C(F)(F)F)cc3Cl)cc(=O)n12 [compound 183, 7-[[5-chloro-3-(trifluoromethyl)pyrazol-1-yl]methyl]-3-(methoxymethyl)-2-methyl-thiazolo[3,2-a]pyrimidin-5-one]	5.29 µM	–	–
CNC(=O)c1c(C)sc2nc(Cc3cc(Cl)ccc3Cl)cc(=O)n12 [Example 21.48, 7-[(2,5-dichlorophenyl)methyl]-N,2-dimethyl-5-oxo-thiazolo[3,2-a]pyrimidine-3-carboxamide]	–	8.2 µM	100%
Cc1sc2nc(Oc3cccc(C#N)c3F)cc(=O)n2c1C1CC1C (stereo not shown) [compound 107, 2-fluoro-3-[2-methyl-3-(2-methylcyclopropyl)-5-oxo-thiazolo[3,2-a]pyrimidin-7-yl]oxy-benzonitrile]	0.994 µM	–	–
Cc1sc2nc(Cn3nc(C(F)(F)F)cc3Cl)cc(=O)n2c1CC1CC1 [compound 221, 7-[[5-chloro-3-(trifluoromethyl)pyrazol-1-yl]methyl]-3-(cyclopropylmethyl)-2-methyl-thiazolo[3,2-a]pyrimidin-5-one]	3.76 µM	–	–
Cc1sc2nc(COc3ccc(C#N)cc3)cc(=O)n2c1[C@@H]1C[C@H]1CO (relative stereo) [Example 4.13, 4-((3-(trans-2-(hydroxymethyl)cyclopropyl)-2-methyl-5-oxo-5H-thiazolo[3,2-a]pyrimidin-7-yl)methoxy)benzonitrile]	–	31.1 µM	72.8%
CC(=O)c1c(C)sc2nc(Cn3nc(C(F)(F)F)cc3C3CC3)cc(=O)n12 [Example 18.2, 3-acetyl-7-((5-cyclopropyl-3-(trifluoromethyl)-1H-pyrazol-1-yl)methyl)-2-methyl-5H-thiazolo[3,2-a]pyrimidin-5-one]	–	2.2 µM	144%
CNC(=O)c1c(C)sc2nc(Cc3cc(C(F)(F)F)ccc3C3CC3)cc(=O)n12 [Example 21.17, 7-[[2-cyclopropyl-5-(trifluoromethyl)phenyl]methyl]-N,2-dimethyl-5-oxo-thiazolo[3,2-a]pyrimidine-3-carboxamide]	–	23.7 µM	107%
Cc1sc2nc(Oc3cccc(C(F)(F)F)c3)cc(=O)n2c1C1CC1CO (stereo not shown) [compound 12, 3-[2-(Hydroxymethyl)cyclopropyl]-2-methyl-7-[3-(trifluoromethyl)phenoxy]thiazolo[3,2-a]pyrimidin-5-one]	2.05 µM	–	–
Cc1sc2nc(Cn3nc(C(F)(F)F)cc3Cl)cc(=O)n2c1Br [compound 215, 3-bromo-7-[[5-chloro-3-(trifluoromethyl)pyrazol-1-yl]methyl]-2-methyl-thiazolo[3,2-a]pyrimidin-5-one]	0.0911 µM	–	–
CCN(Cc1cc(=O)n2cc(C)sc2n1)c1ccc(F)cc1 [Example 11.3, 7-[(N-ethyl-4-fluoro-anilino)methyl]-2-methyl-thiazolo[3,2-a]pyrimidin-5-one]	–	3.2 µM	132%
O=c1cc(Cn2nc(C(F)(F)F)cc2Cl)nc2sc(C(F)(F)F)c(-c3cscn3)n12 [compound 248, 7-[[5-chloro-3-(trifluoromethyl)pyrazol-1-yl]methyl]-3-thiazol-4-yl-2-(trifluoromethyl)thiazolo[3,2-a]pyrimidin-5-one]	1.45 µM	–	–
CCC(=O)c1c(C(F)(F)F)sc2nc(Cn3nc(C(F)(F)F)cc3Cl)cc(=O)n12 [compound 250, 7-[[5-Chloro-3-(trifluoromethyl)pyrazol-1-yl]methyl]-3-propanoyl-2-(trifluoromethyl)thiazolo[3,2-a]pyrimidin-5-one]	13.8 µM	–	–
CCCc1c(C)sc2nc(CN(CC)c3ccc(F)cc3)cc(=O)n12 [Example 5.41, 7-((ethyl(4-fluorophenyl)amino)methyl)-2-methyl-3-propyl-5H-thiazolo[3,2-a]pyrimidin-5-one]	–	2 µM	125%

More lines, now with the values ahead:

EC50 (Table 3)	EC50 (Table 2)	Max % (Table 2)	SMILES
11.6 µM	–	–	Cc1sc2nc(Cc3cccc(C(F)(F)F)c3F)cc(=O)n2c1C1CC1O (stereo not shown) [compound 100, 7-[[2-fluoro-3-(trifluoromethyl)phenyl]methyl]-3-(2-hydroxycyclopropyl)-2-methyl-thiazolo[3,2-a]pyrimidin-5-one]
–	–	44%	Cc1sc2nc(COc3ccc(F)cc3)cc(=O)n2c1C(=O)NC(C)C [Example 1.10, 7-(4-Fluorophenoxymethyl)-2-methyl-5-oxo-N-(propan-2-yl)-5H-[1,3]thiazolo[3,2-a] pyrimidine-3-carboxamide]
–	0.535 µM	177%	CCN(Cc1cc(=O)n2c(C(C)=O)c(C)sc2n1)c1ccc(F)cc1 [Example 10.3, 3-acetyl-7-[[ethyl(4-fluorophenyl)amino]methyl]-2-methyl-5H-[1,3]thiazolo[3,2-a]pyrimidin-5-one]
–	3.4 µM	137%	Cc1sc2nc(Cn3nc(C4CC4)cc3C3CC3)cc(=O)n2c1[C@@H]1C[C@H]1CO (relative stereo) [Example 15.17, 7[(3,5-dicyclopropylpyrazol-1-yl)methyl]-3-[trans-2-(hydroxymethyl)cyclopropyl]-2-methyl-thiazolo[3,2-a]pyrimidin-5-one]
0.249 µM	–	–	Cc1sc2nc(Cn3nc(C(F)(F)F)cc3Cl)cc(=O)n2c1[C@@H]1C[C@@H]1C#N (single isomer, unassigned) [compound 126]
–	30.8 µM	122%	Cc1sc2nc(Cn3nc(CCO)cc3C(F)(F)F)cc(=O)n2c1[C@@H]1C[C@H]1CO (relative stereo) [Example 15.8, 7-((3-(2-hydroxyethyl)-5-(trifluoromethyl)-1H-pyrazol-1-yl)methyl)-3-(trans-2-(hydroxymethyl)cyclopropyl)-2-methyl-5H-thiazolo[3,2-a]pyrimidin-5-one]
–	–	107%	CCN(Cc1cc(=O)n2c(F)c(C)sc2n1)c1ccc(F)cc1 [Example 11.2, 7-[(N-ethyl-4-fluoro-anilino)methyl]-3-fluoro-2-methyl-thiazolo[3,2-a]pyrimidin-5-one]
–	19.6 µM	59.9%	CNC(=O)Cc1c(C)sc2nc(COc3ccc(F)cc3)cc(=O)n12 [Example 2.6, 2-(7-((4-fluorophenoxy)methyl)-2-methyl-5-oxo-5H-thiazolo[3,2-a]pyrimidin-3-yl)-N-methylacetamide]
30.4 µM	–	–	CCNC(=O)c1c(C)sc2nc(Oc3cccc(C#N)c3F)cc(=O)n12 [compound 68, 7-(3-cyano-2-fluoro-phenoxy)-N-ethyl-2-methyl-5-oxo-thiazolo[3,2-a]pyrimidine-3-carboxamide]
42 µM	–	–	CCNC(=O)c1c(C(C)C)sc2nc(Cc3cccc(C(F)(F)F)c3F)cc(=O)n12 [compound 87, N-ethyl-7-[[2-fluoro-3-(trifluoromethyl)phenyl]methyl]-2-isopropyl-5-oxo-thiazolo[3,2-a]pyrimidine-3-carboxamide]
9.04 µM	–	–	O=c1cc(Cn2nc(C(F)(F)F)cc2Cl)nc2sc3c(n12)CCC3 [compound 89]
0.199 µM	–	–	N#CC1CC1c1c(C(F)(F)F)sc2nc(Cc3cccc(C(F)(F)F)c3F)cc(=O)n12 (stereo not shown) [compound 162, 2-[7-[[2-fluoro-3-(trifluoromethyl)phenyl]methyl]-5-oxo-2-(trifluoromethyl)thiazolo[3,2-a]pyrimidin-3-yl]cyclopropanecarbonitrile]
12.1 µM	–	–	CNC(=O)c1c(C(F)(F)F)sc2nc(Cc3cccc(Cl)c3F)cc(=O)n12 [compound 64, 7-[(3-chloro-2-fluoro-phenyl)methyl]-N-methyl-5-oxo-2-(trifluoromethyl)thiazolo[3,2-a]pyrimidine-3-carboxamide]
–	1.3 µM	150%	CCN(Cc1cc(=O)n2c3c(sc2n1)CCC3CO)c1ccc(F)cc1 (single isomer, unassigned) [Example 8.3, 6-[(N-ethyl-4-fluoro-anilino)methyl]-1-(hydroxymethyl)-2,3-dihydro-1H-cyclopenta[3,4]thiazolo[1,4-a]pyrimidin-8-one]
–	–	99.5%	Cc1sc2nc(COc3ccc(F)cc3)cc(=O)n2c1C(=O)NO [Example 1.9, 7-((4-fluorophenoxy)methyl)-N-hydroxy-2-methyl-5-oxo-5H-thiazolo[3,2-a] pyrimidine-3-carboxamide]
0.0616 µM	–	–	Cc1sc2nc(Cn3nc(C(F)(F)F)cc3Cl)cc(=O)n2c1C1CC1C (single isomer, unassigned) [compound 155]
–	–	46.1%	CNC(=O)c1c(C)sc2nc(Cc3ccc(C)c(F)c3)cc(=O)n12 [Example 21.58, 7-[(3-fluoro-4-methyl-phenyl)methyl]-N,2-dimethyl-5-oxo-thiazolo[3,2-a]pyrimidine-3-carboxamide]
–	7 µM	144%	CCN(Cc1cc(=O)n2c(-c3cncnc3)c(C3CC3)sc2n1)c1ccc(F)cc1 [Example 5.15, 2-cyclopropyl-7-[(N-ethyl-4-fluoro-anilino)methyl]-3-pyrimidin-5-yl-thiazolo[3,2-a]pyrimidin-5-one]
3.88 µM	–	–	CCNC(=O)c1c(C)sc2nc(Cc3cc(C#N)cc(C4CC4)c3F)cc(=O)n12 [compound 4, 7-[(5-cyano-3-cyclopropyl-2-fluoro-phenyl)methyl]-N-ethyl-2-methyl-5-oxo-thiazolo[3,2-a]pyrimidine-3-carboxamide]
